We go through five compounds from patent publication US12582648B2 (BIOPROJET Pharma, priority 2020, dated 2026).

The subject of one data set is healthy smokers. Briefly: Weight gain during smoking cessation, double blind clinical trial. In kind it is in vivo, human. The conditions noted are these: for weight increase: after twelve weeks; for weight increase compared to the weight before treatment: twelve further weeks after the end of treatment.
Data set [1] has as its target human dopamine D3 receptor (Homo sapiens, UniProt P35462). Briefly: Mitogenesis assay of D3-receptor activation ([3H]-thymidine incorporation, CHO cells). In kind it is cell-based. Conditions: for agonist behaviour (partial / full): human D3 receptor. On the procedure:
Mitogenesis Assay of D3-Receptor Activation
Chinese hamster ovary (CHO) cells stably expressing the human dopamine D3 receptor were plated overnight in 96-well plates. Cells were then washed with serum-free medium, and incubated 20 h with various concentrations of ligands. Tritiated thymidine was added for a 4 hour-pulse. Then, the cells were detached with trypsin/EDTA, transferred in GF/C multiscreen microplates, rinsed with ice-cold PBS and ethanol and dried. [^3H]-Thymidine incorporation was measured by liquid scintillation in a MicroBeta counter.
Results are expressed as percentage of the maximal [^3H]-thymidine incorporation yielded with the full agonist quinelorane.
Background: Uptake of a labelled nucleoside into DNA is a usual measure of proliferation.

For data set [2], the system named is monosynaptic spinal cord reflex. The data set is described as follows: Monosynaptic response in the isolated spinal cord of rat pups (rat model of RLS). Conditions: for inhibition of the monosynaptic reflex: reference agonists applied to isolated rat spinal cord. The method, then: RLS is believed to reflect an abnormal sensitivity of spinal stretch reflexes. These reflexes are modulated in an inhibitory fashion by dopamine released in the dorsal horn from a descending dopaminergic projection arising from A11 dopamine cells in the hypothalamus.
Electrophysiological responses i.e. motor action potentials recorded on the ventral root of isolated spinal cord from rat pups following stimulation of the dorsal root were analyzed.

A further data set deals with human D2 receptor (Homo sapiens, UniProt P14416). Briefly: Affinity at the human D2 receptor. It counts as binding.
Data set [3] has as its target T1, human dopamine D2 short isoform (Homo sapiens, UniProt P14416).
T1 construct: expressed in transfected cells; host or cells: HEK293 cells
Briefly: Calcium fluxes assay of D2-receptor activation/inhibition (HEK293 cells). In kind it is cell-based. The conditions noted are these: calcium flux; for agonist behaviour at D2 receptor: BP1.4979 at concentrations up to 1,000 nM; for EC50: HEK293 cells, human D2 short isoform. On the procedure: Calcium Fluxes Assay of D2-Receptor Activation/Inhibition
HEK293 cells expressing the human dopamine D2 short isoform were used to evaluate the potential agonist property of test compounds. Cells were loaded with Fluo-4-AM solution supplemented with sulfinpyrazone then plated in a 96-well plate and introduced in a FLEX station for fluorescence measurement following calcium transients.
Responses were calculated as the maximum minus the minimum fluorescence counts (Fmax−Fmin).
A general note: Calcium flux is commonly read through the fluorescence of an indicator in the cells.

A further data set has as its system RLS patients. The data set is described as follows: Double-blind placebo-controlled clinical trial in restless legs syndrome. It counts as in vivo, human. Conditions: 15 mg twice a day for two weeks. The method, then:
Clinical Studies: Efficacy of BP1.4979 in Restless Legs Syndrome (Randomized, Double Blind Parallel Groups Sequential, Placebo Controlled, Clinical Trial)
The double-blind trial was conducted on 29 patients.

A further data set has as its target T2, human D3 receptor (Homo sapiens, UniProt P35462).
T2 construct: expressed in transfected cells
Briefly: GTPγ35S binding assay at D3 dopamine receptor (CHO cell membranes). It counts as biochemical. The conditions noted are these: GTPγ[35S] assay, dopamine as full agonist reference. A general note: Binding of GTPγS marks nucleotide exchange on a G protein.

Data set [4] concerns 160 other receptors, channels or enzymes. The data set is described as follows: Activity at 160 other receptors, channels or enzymes.

Sequence of human dopamine D3 receptor (P35462 whole entry): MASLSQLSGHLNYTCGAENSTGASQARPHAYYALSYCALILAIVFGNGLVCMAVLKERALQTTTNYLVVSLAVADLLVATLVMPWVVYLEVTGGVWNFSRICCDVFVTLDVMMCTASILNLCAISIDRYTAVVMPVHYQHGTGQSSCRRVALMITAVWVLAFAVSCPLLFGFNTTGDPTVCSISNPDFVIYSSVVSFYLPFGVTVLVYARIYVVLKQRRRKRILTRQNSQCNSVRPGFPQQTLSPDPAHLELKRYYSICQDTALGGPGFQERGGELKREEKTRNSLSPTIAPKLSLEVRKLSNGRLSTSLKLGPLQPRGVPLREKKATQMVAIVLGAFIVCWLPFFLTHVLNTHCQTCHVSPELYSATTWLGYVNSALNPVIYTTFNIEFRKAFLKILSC
T1 sequence (P14416 1-414 isoform P14416-2): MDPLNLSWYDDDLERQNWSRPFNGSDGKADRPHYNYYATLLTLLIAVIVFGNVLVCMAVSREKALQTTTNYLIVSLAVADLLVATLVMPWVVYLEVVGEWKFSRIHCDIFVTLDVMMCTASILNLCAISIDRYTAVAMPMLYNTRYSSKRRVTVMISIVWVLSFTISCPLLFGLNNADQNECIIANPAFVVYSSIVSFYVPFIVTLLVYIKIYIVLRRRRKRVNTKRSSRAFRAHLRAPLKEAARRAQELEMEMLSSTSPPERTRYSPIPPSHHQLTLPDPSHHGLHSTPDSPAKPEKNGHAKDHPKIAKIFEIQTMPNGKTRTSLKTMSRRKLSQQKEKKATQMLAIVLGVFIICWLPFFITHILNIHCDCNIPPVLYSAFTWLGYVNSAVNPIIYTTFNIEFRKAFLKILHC
T2 sequence (P35462 whole entry): as the sequence (P35462 whole entry) above
Sequence of human D2 receptor (P14416 whole entry, canonical isoform): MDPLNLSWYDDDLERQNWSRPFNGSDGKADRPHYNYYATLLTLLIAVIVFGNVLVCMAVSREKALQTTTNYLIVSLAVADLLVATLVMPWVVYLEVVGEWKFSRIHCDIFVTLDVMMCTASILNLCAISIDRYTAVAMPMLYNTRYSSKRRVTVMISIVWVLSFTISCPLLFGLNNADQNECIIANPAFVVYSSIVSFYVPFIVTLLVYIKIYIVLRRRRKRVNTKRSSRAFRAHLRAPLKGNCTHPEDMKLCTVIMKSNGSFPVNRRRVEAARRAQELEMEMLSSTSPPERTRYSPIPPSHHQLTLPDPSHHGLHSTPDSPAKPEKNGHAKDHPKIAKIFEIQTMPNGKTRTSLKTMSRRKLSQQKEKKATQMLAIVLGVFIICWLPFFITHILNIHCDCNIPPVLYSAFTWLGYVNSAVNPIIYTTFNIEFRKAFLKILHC
Procedure for human D3 receptor: Thawed membranes from CHO cells stably expressing human D3 receptor were diluted at a final concentration of 5 μg/180 μL/well in a binding buffer containing HEPES 50 mM, MgCl2 3 mM, NaCl 140 mM, GDP 4 μM, pH=7.4 and distributed in 96 well polystyrene microplate. […] After transfer in a Millipore GF/C HTS® microplate, the filtration of the reactional mix followed by a three time 250 μl wash put an end to the reaction. The filter-bound radioactivity was measured in a liquid scintillation counter Microbeta with 70 μl of scintillation fluid.

Broadly, the EC50 is the concentration needed to bring the measured effect to its halfway point. Consider `COCCC(=O)N[C@H]1CC[C@H](CCN2CCN(c3cccc(C#N)c3)CC2)CC1` [BP1.4979, N-(4-{2-[4-(3-Cyanophenyl)piperazin-1-yl]ethyl}cyclohexyl)-3-methoxypropanamide], for which the values for the weight increase in the data set on healthy smokers (3 mg once a day), in the data set on healthy smokers (10 mg once a day) and with healthy smokers (15 mg once a day) were 0.9 kg, 0.5 kg and 0.0 kg, respectively. Also, the “weight increase compared to the weight before treatment” value amounted to 2.0 kg in the data set with healthy smokers (3 mg once a day), 1.4 kg in the data set with healthy smokers (10 mg once a day) and 0.2 kg in the data set with healthy smokers (15 mg once a day). Besides, in data set [1] (CHO, read-out: intrinsic activity), the Emax was determined as 30%. Further, in data set [1] (mitogenesis, CHO cells expressing human D3 receptor), it took 0.7 nM to reach a half-maximal effect (EC50). Besides, the “agonist behaviour (partial / full)” value in data set [1] (mitogenesis) is on record as “partial agonist”. Besides, the “inhibition of the synaptic transmission” value in data set [2] (30 nM, stimulation 40 V, 50 μs of the dorsal root) was “inhibited fully”. For the same compound, the “amplitude of the post-synaptic response on the ventral root” value in data set [2] (another series of experiments, supraliminar stimulation of the dorsal root) was “dose dependently inhibited”. The “effect on post-synaptic response in the presence of the dopamine D3 antagonist BP1.4096” value in data set [2] (in the presence of BP1.4096) is listed as “prevented”. Moreover, the “behaviour at the human D2 receptor” value on human D2 receptor is “pure antagonist”. In addition, the “blockade of the effect of dopamine or agonists” value in data set [3] (antagonist mode) is “block completely”. For the same compound, the “agonist behaviour at D2 receptor” value in data set [3] was “failed to activate the receptor”. The “nausea and vomiting side-effects” value in the data set with RLS patients was “no patient reported any symptom related to nausea nor did had vomiting episodes”. Besides, the partial activity on human D3 receptor was less than 5%. Also, the “activity at 160 other receptors, channels or enzymes” value in data set [4] is “inactive”.

For `NCCc1ccc(O)c(O)c1` [Dopamine, dopamine, reference compound], in data set [2], the “inhibition of the monosynaptic reflex” value is reported as “total or nearly total inhibition”.

On to `CCCN(CCC)CCc1cccc2c1CC(=O)N2` [Ropinirole], for which the “agonist behaviour (partial / full)” value in data set [1] (mitogenesis) is “full agonists”. In data set [3], the EC50 came out at 20 nM and the “agonist behaviour at D2 receptor” value is listed as “full agonists”.

Turning to `CCCN(CCc1cccs1)[C@H]1CCc2c(O)cccc2C1` [Rotigotine], in data set [3], the EC50 came out at 0.3 nM and the “agonist behaviour at D2 receptor” value is on record as “full agonists”.

As for `CCCN(CCC)C1CCc2ccc(O)cc2C1` (stereo not shown) [7-OHDPAT, reference compound], the “inhibition of the monosynaptic reflex” value in data set [2] is “total or nearly total inhibition”.
